This is an account of results in the supplement of paper PMC6470124.

Series [1] in a line: absolute recovery over vacuum-assisted evaporative concentration; higher = better recovery. The note with it: enrichment method: VEC. Put shortly: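 Samples of influent (6 mL), effluent (15 mL) and surface or nanopure water (60 mL) were spiked with standards before or after concentration, or left unspiked, at 200 ng/L (nanopure/surface) or 1000 ng/L (wastewater), adjusted by class and compound. Concentration was by evaporation at 55 °C and 20 mbar to about 0.3 mL, followed by adjustment to 0.4 mL and centrifugation. Internal standards were then added for LC-HRMS/MS analysis. Absolute recovery was (response ratio pre − unspiked)/(post − unspiked) × 100, using averages of ≥ 2 replicates.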

Series [2] is described as follows: absolute recovery over mixed-bed multilayer solid-phase extraction; higher = better recovery. The following applies: enrichment method: SPE. Put shortly:
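Absolute recovery was calculated by comparing background-corrected response ratios of samples spiked before extraction with those spiked after it, averaged over at least two replicates. Wastewater (100–250 mL, adjusted to pH 6.5 and glass-fibre filtered) or 1000 mL of unfiltered nanopure water was passed through a three-layer mixed-bed cartridge and eluted with basic and then acidic ethyl acetate/methanol. Standards were added before extraction, after extraction, or not at all, at 200 ng/L in water or 1000 ng/L in wastewater, with exceptions for some classes. Internal standards were added afterwards, and samples were analysed by liquid chromatography with high-resolution tandem mass spectrometry in both ionisation modes.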

Series [3] is described as follows: LC retention time (Atlantis T3, 5-95% MeOH gradient, 0.1% formic acid); higher = more retained / less polar. Put shortly:
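Retention times were recorded for reference standards on a polar reversed-phase C18 column. The standards were of purity ≥ 95%, and the Atlantis T3 column (3 × 150 mm, 3 μm) was run at 0.3 mL/min with a gradient from 5 to 95% methanol over 17.5 min, both water and methanol containing 0.1% formic acid. Detection used high-resolution tandem mass spectrometry on a QExactive Plus, with positive and negative electrospray in separate runs, and peaks were integrated in TraceFinder (5 ppm tolerance, at least three points per peak) before being checked by hand.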

For `COC=C(C(=O)OC)c1ccccc1Oc1cc(Oc2ccccc2C#N)ncn1` [Azoxystrobin], the absolute recovery in series [1] (wastewater effluent) was 102%; in series [1] (wastewater influent) it was 99.4%; in series [2] (nanopure water) it was 96.9%; in series [2] (surface water) it was 96%; in series [2] (wastewater effluent), 92.8%; in series [2] (wastewater influent) it was 93.6%. In addition, the LC retention time in series [3] worked out at 18.9 min.

`O=C1CCC2(O)C3Cc4ccc(O)c5c4C2(CC[NH+]3CC2CC2)C1O5` (centres undefined) [Naltrexon]: the absolute recovery in series [1] (wastewater effluent) worked out at 103%; in series [1] (wastewater influent), 99%; in series [2] (nanopure water) it was 87.8%; in series [2] (surface water), 98.2%; in series [2] (wastewater effluent) it was 95.7%; in series [2] (wastewater influent) it was 94.3%. Further, the LC retention time in series [3] was 9.63 min.

For `O=[N+]([O-])C(Br)(CO)CO` [Bronopol], the absolute recovery in series [1] (wastewater effluent) came out at 52.8%; in series [2] (nanopure water), 13.9%; in series [2] (surface water) it was 6.4%; in series [2] (wastewater effluent), 7%; in series [2] (wastewater influent), 7.8%. Moreover, the LC retention time in series [3] turned out to be 9.24 min.

For `OCC(O)C[NH+]1CCN(c2ccccc2)CC1` (centres undefined) [Dropropizine], the absolute recovery in series [1] (wastewater effluent) worked out at 106%; in series [1] (wastewater influent), 98.7%; in series [2] (nanopure water), 108%; in series [2] (surface water), 108%; in series [2] (wastewater effluent), 99.5%; in series [2] (wastewater influent) it was 86.7%. The molecule further had an LC retention time in series [3] of 9.49 min.

`CCCC(Cn1cncn1)c1ccc(Cl)cc1Cl` (centres undefined) [Penconazol]: the absolute recovery in series [1] (wastewater effluent) was 105%; in series [1] (wastewater influent), 105%; in series [2] (nanopure water), 98.5%; in series [2] (surface water), 97.1%; in series [2] (wastewater effluent), 100%; in series [2] (wastewater influent), 87.3%. For the same molecule, in series [3], the LC retention time came out at 20.9 min.

`COc1ccc(C(C[NH+](C)C)C2(O)CCCCC2)cc1` (centres undefined) [Venlafaxin]: the absolute recovery in series [1] (wastewater effluent) worked out at 106%; in series [1] (wastewater influent), 100%; in series [2] (nanopure water) it was 95.3%; in series [2] (surface water), 96.8%; in series [2] (wastewater effluent) it was 93.3%; in series [2] (wastewater influent), 99.1%. This molecule also yielded an LC retention time in series [3] of 14 min.

As for `CC(=O)Nc1ccc(S(=O)(=O)[N-]c2nc(C)cc(C)n2)cc1` [N4-Acetyl-Sulfamethazin], the absolute recovery in series [1] (wastewater effluent) came out at 108%; in series [1] (wastewater influent), 97.1%; in series [2] (nanopure water), 86.9%; in series [2] (surface water) it was 91%; in series [2] (wastewater effluent), 93.2%; in series [2] (wastewater influent) it was 93.2%. In series [3], this molecule displayed an LC retention time of 13.1 min.

For `CCC(C(N)=O)N1CCCC1=O` (centres undefined) [Levetiracetam], the absolute recovery was determined as 105% in series [1] (wastewater effluent), 65.6% in series [2] (nanopure water), 60.2% in series [2] (surface water) and 56.3% in series [2] (wastewater effluent). The molecule further showed an LC retention time in series [3] of 10.9 min.

In the case of `O=C1Nc2ccc(Cl)cc2C(c2ccccc2Cl)=NC1O` (centres undefined) [Lorazepam], the absolute recovery was 108% in series [1] (wastewater effluent); 104% in series [1] (wastewater influent); 104% in series [2] (nanopure water); 94.3% in series [2] (surface water); 97.3% in series [2] (wastewater effluent); 87.4% in series [2] (wastewater influent). Further, in series [3], the LC retention time turned out to be 18.3 min.

In the case of `CCOCCN(C(=O)CCl)C(=C(C)C)c1ccccc1` [Pethoxamid], the absolute recovery in series [1] (wastewater effluent) turned out to be 87.2%; in series [1] (wastewater influent) it was 92.5%; in series [2] (nanopure water), 95.5%; in series [2] (surface water), 85.7%; in series [2] (wastewater effluent), 86.7%; in series [2] (wastewater influent), 99.6%. Moreover, the LC retention time in series [3] worked out at 20.3 min.

With `C=CC1=C(C(=O)[O-])N2C(=O)C([NH3+])C2SC1` (centres undefined) [7-Amino-3-vinyl-3-cephem-4-carboxylic-acid], the absolute recovery in series [1] (wastewater effluent) stood at 95.6%; in series [1] (wastewater influent), 96.5%; in series [2] (nanopure water), 47.7%; in series [2] (wastewater influent), 37.9%. In series [3], this molecule displayed an LC retention time of 6.11 min.

Turning to `CC(=O)Nc1c(I)c(NC(C)=O)c(I)c(C(=O)[O-])c1I` [Diatrizoate (=Amidotrizoic-acid)], the absolute recovery in series [1] (wastewater effluent) was found to be 100%; in series [1] (wastewater influent), 102%; in series [2] (nanopure water) it was 69%; in series [2] (surface water) it was 74.5%; in series [2] (wastewater effluent) it was 73.8%; in series [2] (wastewater influent), 65.1%. The same molecule yielded an LC retention time in series [3] of 10 min.
